Measured values as given in paper PMC4801399, “Impact of a CXCL12/CXCR4 Antagonist in Bleomycin (BLM) Induced Pulmonary Fibrosis and Carbon Tetrachloride (CCl4) Induced Hepatic Fibrosis in Mice” (PLoS ONE, 2016).

How the values were obtained:
[1] = system: BLM-induced pulmonary fibrosis; assay: BLM-induced murine model of pulmonary fibrosis; type: in vivo, CD-1 mice
Procedure: PF was induced in six-weeks old female CD-1 mice purchased from Harlan. Animals were randomly divided into three groups (n = 10/group): PBS plus acetate buffer control, BLM plus acetate buffer and BLM plus AMD070.
On day 0, mice were anaesthetized with isoflurane and PF was induced by BLM administration. Specifically, BLM (C103610, Fresenius Kabi Canada, 2U/kg) in 40 μL PBS or vehicle control (PBS) was administrated by non-surgical endotracheal instillation with sterile disposable plastic loading pipette tips. The next day, AMD070 (Shanghai Haoyuan Chemexpress Co., 400 μg/mouse in 200 μL 30 mM acetate buffer) or 200 μL of 30 mM acetate buffer (pH 5) was administrated via oral gavage (PO) with a 20G feeding needle. AMD070 or acetate buffer vehicle was administrated daily for 21 consecutive days. Animals were euthanized with avertin overdose on day 22.
Following perfusion with PBS, lungs were fixed in 4% paraformaldehyde at 4°C for 2 days. These were embedded in paraffin, sectioned at 1 mm apart and stained with hematoxylin-eosin (H&E) and Masson’s Trichrome stains. For quantitation of percent PF, entire lung and fibrotic areas were outlined. Percent fibrotic area was calculated by dividing fibrotic area (mm^2) by total lung area (mm^2) and multiplying by 100. For H&E stained slides, two histology slides/animal were selected from the central region of the lungs and analyzed whereas only one histology slide/animal was analyzed with Masson’s Trichrome stained slides. These analyses were performed with Image J and the analyst was blinded to sample identification.

[2] = system: leukocyte mobilization (blood cell counts); assay: Hematology measurements after SC administration; type: in vivo, C57BL/6 mice; conditions: SC 400 μg/mouse; data not shown
Procedure: Non fasted C57BL/6 mice at 7 to 8 weeks of age from Harlan were sacrificed at 0.5, 1, 3, 24 and 48 hours (n = 3/time point) post administration of AMD070 (in 30 mM acetate buffer, pH 5) (400 μg/mouse). All preceding procedures were same as those for AMD070 PK studies via IP injections.

[3] = system: CCl4-induced hepatic fibrosis; assay: CCl4-induced murine model of hepatic fibrosis; type: in vivo, C57BL/6 mice
Description: Hepatic fibrosis was induced in eleven week old female C57BL/6 mice from JAX Labs. Animals were randomly divided into three groups: oil plus vehicle (PBS) control, CCl4 plus vehicle (PBS) control and CCl4 plus AMD070. As some animals were euthanized prior to study completion because they had reached a humane endpoint, final group numbers were n = 9 for oil plus vehicle (PBS) control, n = 6 for CCl4 plus vehicle (PBS) control and n = 7 for CCl4 plus AMD070 groups. […] Starting one day prior to the initial CCl4 treatment (day -1), dosing with either AMD070 reconstituted in PBS (50 mg/kg) or PBS vehicle control (10 mL/kg) was administered IP and continued 5 days/week for 4 weeks. Specifically, AMD070 or PBS treatments were not performed on the 2 days/week on which animals were given CCl4 (or olive oil vehicle control). One day after the last AMD070 or PBS treatment, animals were euthanized with CO2.
Livers were perfused with PBS then 10% formalin and the left top lobe preserved in 10% neutral buffer formalin (NBF) for a week. The fixed liver was embedded in paraffin, six cross sections at 500 μm apart generated and stained with Picrosirius Red. For quantitation of percent hepatic fibrosis, fibrotic area (Picrosirius Red) was divided by total liver area and multiplying by 100. Three histology slides/animal were analyzed. The three slides corresponded to one slide from each of the alternative six cross sections. These analyses were performed with Olympus cellSens and the analyst was blinded to sample identity.
The top right lobe of livers were homogenized in 1 mL of Trizol (Invitrogen) and flash frozen in dry ice and stored in -80°C for RNA isolation to perform RT-qPCR. Total RNA was isolated and cDNA prepared using the High Capacity cDNA Reverse Transcription kit according to the manufacturer’s instructions (Life Technologies). RT-qPCR was carried out as previously described using the standard curve method. The following primer/probe sets were used to detect: Acta2 (IDT Assay–N007392.1), Probe- 5’-/56-FAM/TTACAGAGC/ZEN/CCAGAGCCATTGTCG/3IABkFQ/3’, Primer 1–5’-[…]-3’, Primer 2: 5’-[…]-3’; Col1a1 (Life Technologies custom primer/probe mix), primer 1–5’-[…], primer 2–5’- […], probe- 5’-FAM-ACACCGGAACTTGGG-MGBNFQ; Tbp (Life Technologies custom primer/probe mix), Primer 1–5’-[…], Primer 2–5’-TGGCTCCTGTGCACACCAT, Probe- 5’-FAM-CGTTGATTTTCAGTTCTGG-MGBNFQ; Gapdh (IDT Assay–Mm.PT.39a.1), probe- 5’-/56-FAM/TGCAAATGG/ZEN/CAGCCCTGGTG/3IABkFQ/3’, primer 1–5’-AATGGTGAAGGTCGGTGTG-3’, primer 2–5’-[…]-3’.
Five μL of serum was used with the AST Activity Assay Kit (Sigma MAK055) as per manufacturer’s instructions to determine serum AST levels.

[4] = BLM plus AMD070 400 μg/mouse PO daily 21 days, day 22, mean, n = 9
[5] = RT-qPCR relative to Gapdh and Tbp, CCl4 plus AMD070 vs CCl4 plus PBS

SMILES: NCCCCN(Cc1nc2ccccc2[nH]1)[C@H]1CCCc2cccnc21 [AMD070]
- lung fibrosis, Masson's Trichrome [1, 4]: 10.5%
- lung inflammation, H & E stained lungs (percent surface area) [1, 4]: 14.2%
- survival over the duration of the study ([1]; BLM plus AMD070 400 μg/mouse PO daily, 22 days, BLM plus acetate buffer 40%): 90%
- blood cell count changes compared with IP [2]: magnitude of these changes were lower
- percent liver fibrosis (Picrosirius red staining) ([3]; CCl4 plus AMD070 50 mg/kg IP 5 days/week for 4 weeks, group average, CCl4 plus PBS 3.2%): 3.6%
- mortality rate between groups ([3]; CCl4 plus AMD070 50 mg/kg IP vs control groups): no difference
- liver Acta2 (αSma) relative transcription level [3, 5]: not different
- liver Col1a1 relative transcription level [3, 5]: not different
- serum AST levels ([3]; after 4 weeks, CCl4 plus AMD070 vs CCl4 plus vehicle control): no difference
